{"source": "patent US20260167742A1", "about": "“METHOD FOR TREATING GASTRIC CANCER BY COMBINING ANTI-HER2 ANTIBODY AND CHEMOTHERAPEUTIC AGENT, AND USE” (SHANGHAI HENLIUS BIOTECH, INC., priority 2023, published 2026)", "type_in_all_cases": "cell-based, human", "key": {"NCI-N87 cells": {"tested_on": "NCI-N87 cells", "assay": "Apoptosis assay (Caspase-Glo 3/7)", "conditions": "24 h treatment", "description": "The apoptosis was assessed by measuring the activity of caspases 3/7 in gastric cancer NCI-N87 cells using the Caspase-Glo®3/7 Assay system. A xenograft human gastric cancer NCI-N87 model and a human gastric cancer PDX model were treated with the antibodies at given doses. All data are presented as mean±SEM. The p values were calculated using Student's t test. ** denotes p<0.01, and * denotes p<0.05.\nThe apoptosis was assessed by measuring the activity of caspases 3/7 in NCI-N87 cells using the Caspase-Glo®3/7 Assay (G8093, Promega) system. The cells were seeded in a 96-well plate (CLS3799, Corning) at about 1.5×10^4 cells/well and incubated overnight. The original medium was replaced with a drug-containing culture medium of 100 μL, and the cells were treated for 24 h. After an incubation at room temperature for 30 min, 100 μL of Caspase-Glo 3/7 reagent was added. The plate was incubated in the dark for 30 min and detected using Spark (Tecan, Switzerland) after gentle shaking."}, "[1]": {"tested_on": "gastric cancer cells SNU216", "assay": "HER2 internalization (endocytosis) assay, pHrodo Green staining, flow cytometry", "conditions": "10 μg/mL", "description": "(§1) A HER2 internalization assay was performed using pHrodoiFL Green STP ester amine reactive dye (P35369, Invitrogen). […] After a short wash with a wash buffer to remove unbound antibodies, one group of cells was placed on ice for freezing to stop internalization, and the remaining cells were placed in a 37° C. incubator for further incubation. After the co-incubation with the antibody, the cells were fixed with a fixation buffer (420801, Biolegend) for 30 min. Finally, all stained cells were washed with a staining buffer and analyzed on the CytoFLEX LX flow cytometer (Beckman Coulter, USA)."}, "[2]": {"tested_on": "gastric cancer cells NCI-N87", "assay": "HER2 internalization (endocytosis) assay, pHrodo Green staining, flow cytometry", "conditions": "10 μg/mL", "description": "as §1"}}, "data": [{"substance": "pertuzumab: antibody comprising heavy chain SEQ ID NO: 13 and light chain SEQ ID NO: 14 [reference compound]", "values": [{"measurement": "apoptosis (caspases 3/7 activity)", "setting": "NCI-N87 cells", "value": "did not significantly induce the apoptosis of NCI-N87 cells"}, {"measurement": "HER2 internalization (endocytosis)", "setting": "[1]", "value": "weak endocytosis"}, {"measurement": "HER2 internalization (endocytosis)", "setting": "[2]", "value": "weak endocytosis"}]}]}
